Measured values taken from PubChem BioAssay AID248 (DTP/NCI, 2004).
Where “and” joins values, the source holds several entries; their conditions need not be identical. Equal entries are not always repeated. Toxic doses and inconclusive results are not listed. Rule as the data show it: active = T/C of 150% or more; inactive = T/C below 125%.

Test system: L1210 leukemia ip in BDF1 mice, survival T/C
Assay: NCI In Vivo Anticancer Drug Screen. Data for tumor model L1210 Leukemia (intraperitoneal) in B6D2F1 (BDF1) mice
Settings: higher = longer survival
Summary of the method: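 Transplantable tumor model; survival measured in treated vs vehicle control mice. Value = treated/control.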

[1] = endpoint: mean survival time, dose: 100.0 mg/kg/injection, schedule: Q04DX003 (ip), vehicle: Klucel (hydroxypropylcellulose) (HPC)
[2] = endpoint: mean survival time, dose: 200.0 mg/kg/injection, schedule: Q04DX003 (ip), vehicle: Klucel (hydroxypropylcellulose) (HPC)
[3] = endpoint: mean survival time, dose: 400.0 mg/kg/injection, schedule: Q04DX003 (ip), vehicle: Klucel (hydroxypropylcellulose) (HPC)
[4] = endpoint: mean survival time, dose: 100.0 mg/kg/injection, schedule: Q01DX009 (ip), vehicle: saline with Tween-80
[5] = endpoint: mean survival time, dose: 100.0 mg/kg/injection, schedule: Q04DX003 (ip), vehicle: saline sonified
[6] = endpoint: mean survival time, dose: 200.0 mg/kg/injection, schedule: Q01DX009 (ip), vehicle: saline with Tween-80
[7] = endpoint: mean survival time, dose: 200.0 mg/kg/injection, schedule: Q04DX003 (ip), vehicle: saline sonified
[8] = endpoint: mean survival time, dose: 400.0 mg/kg/injection, schedule: Q01DX009 (ip), vehicle: saline with Tween-80
[9] = endpoint: mean survival time, dose: 400.0 mg/kg/injection, schedule: Q04DX003 (ip), vehicle: saline sonified
[10] = endpoint: mean survival time, dose: 100.0 mg/kg/injection, schedule: Q01DX001 (ip), vehicle: other
[11] = endpoint: mean survival time, dose: 200.0 mg/kg/injection, schedule: Q01DX001 (ip), vehicle: other
[12] = endpoint: mean survival time, dose: 400.0 mg/kg/injection, schedule: Q01DX001 (ip), vehicle: other
[13] = endpoint: mean survival time, dose: 100.0 mg/kg/injection, schedule: Q01DX001 (ip), vehicle: saline
[14] = endpoint: mean survival time, dose: 200.0 mg/kg/injection, schedule: Q01DX001 (ip), vehicle: saline
[15] = endpoint: mean survival time, dose: 400.0 mg/kg/injection, schedule: Q01DX001 (ip), vehicle: saline
[16] = endpoint: mean survival time, dose: 100.0 mg/kg/injection, schedule: Q04DX003 (ip), vehicle: saline with Tween-80
[17] = endpoint: mean survival time, dose: 200.0 mg/kg/injection, schedule: Q04DX003 (ip), vehicle: saline with Tween-80
[18] = endpoint: mean survival time, dose: 400.0 mg/kg/injection, schedule: Q04DX003 (ip), vehicle: saline with Tween-80
[19] = endpoint: mean survival time, dose: 5.0 mg/kg/injection, schedule: Q01DX001 (ip), vehicle: saline
[20] = endpoint: mean survival time, dose: 10.0 mg/kg/injection, schedule: Q01DX001 (ip), vehicle: saline
[21] = endpoint: mean survival time, dose: 20.0 mg/kg/injection, schedule: Q01DX001 (ip), vehicle: saline
[22] = endpoint: mean survival time, dose: 40.0 mg/kg/injection, schedule: Q01DX001 (ip), vehicle: saline

Measured: T/C

C/C(=N\Nc1ccc([N+](=O)[O-])cc1[N+](=O)[O-])C(F)(F)F
inactive: endpoint: mean survival time, dose: 100.0 mg/kg/injection, schedule: Q01DX009 (ip), vehicle: saline sonified 95 % of control | [1] 94 % of control | endpoint: mean survival time, dose: 200.0 mg/kg/injection, schedule: Q01DX009 (ip), vehicle: saline sonified 98 % of control | [2] 104 % of control | endpoint: mean survival time, dose: 400.0 mg/kg/injection, schedule: Q01DX009 (ip), vehicle: saline sonified 95 % of control | [3] 104 % of control

COc1ccc(/C=N/N=C(\N)N[N+](=O)[O-])cc1OC
inactive: [4] 102 % of control | [5] 92 % of control | [6] 98 % of control | [7] 97 % of control | [8] 97 % of control | [9] 91 % of control

COC(=O)C(C(C)C)N(C)C(=O)OC(C)(C)C (stereo not given)
inactive: [10] 104 % of control | [11] 102 % of control | [12] 100 % of control

CN(C)N=Nc1ccc(C(N)=O)cc1
inactive: endpoint: mean survival time, dose: 30.0 mg/kg/injection, schedule: Q01DX Z (ip), vehicle: other 108 % of control | endpoint: mean survival time, dose: 40.0 mg/kg/injection, schedule: Q01DX Z (ip), vehicle: other 111 % of control | endpoint: mean survival time, dose: 60.0 mg/kg/injection, schedule: Q01DX Z (ip), vehicle: other 121 % of control | endpoint: median survival time, dose: 65.0 mg/kg/injection, schedule: Q01DX001 (ip), vehicle: steriod suspending solution 100 % of control | endpoint: median survival time, dose: 65.0 mg/kg/injection, schedule: Q01DX009 (ip), vehicle: steriod suspending solution 105 % of control | endpoint: median survival time, dose: 108.0 mg/kg/injection, schedule: Q01DX001 (ip), vehicle: steriod suspending solution 100 % of control | endpoint: median survival time, dose: 180.0 mg/kg/injection, schedule: Q04DX003 (ip), vehicle: steriod suspending solution 105 % of control | endpoint: median survival time, dose: 300.0 mg/kg/injection, schedule: Q01DX001 (ip), vehicle: steriod suspending solution 100 % of control

O=C(c1ccccc1)C1C(=O)N(c2ccccc2)C(=O)N1c1ccccc1 (stereo not given)
inactive: [13] 90 % of control | [14] 96 % of control | [15] 96 % of control

NC(CCSC(c1ccccc1)c1ccccc1)C(=O)O (stereo not given)
inactive: [13] 101 % of control | [14] 97 % of control | [15] 97 % of control

CCOC(=O)N1CC2CCc3c(ccc4ccccc34)N2C1=O (stereo not given)
inactive: [10] 97 % of control | [11] 92 % of control | [12] 95 % of control

CCc1ccc(C(=O)C2CC2)cc1
inactive: [4] 102 % of control | [16] 93 % of control | [6] 104 % of control | [17] 96 % of control | [8] 110 % of control | [18] 96 % of control

CN(C)C(=O)OC(C)(C)C
inactive: endpoint: mean survival time, dose: 100.0 mg/kg/injection, schedule: Q04DX002 (ip), vehicle: saline 97 % of control | endpoint: mean survival time, dose: 200.0 mg/kg/injection, schedule: Q04DX002 (ip), vehicle: saline 101 % of control | endpoint: mean survival time, dose: 400.0 mg/kg/injection, schedule: Q04DX002 (ip), vehicle: saline 97 % of control

CC(C)N=Cc1cc(Br)cc(Br)c1O.CC(C)N=Cc1cc(Br)cc(Br)c1O.[Co]
inactive: endpoint: mean survival time, dose: 100.0 mg/kg/injection, schedule: Q04DX003 (ip), vehicle: saline 88 % of control | endpoint: mean survival time, dose: 200.0 mg/kg/injection, schedule: Q04DX003 (ip), vehicle: saline 91 % of control | endpoint: mean survival time, dose: 400.0 mg/kg/injection, schedule: Q04DX003 (ip), vehicle: saline 105 % of control

CCC[CH2][Sn]1([CH2]CCC)[O]C(=O)C2C(C=C(C)C)C=C(C)C(C)C2C(=O)[O]1 (stereo not given)
inactive: [19] 93 % of control | [20] 104 % of control | [21] 104 % of control | [22] 96 % of control | endpoint: mean survival time, dose: 80.0 mg/kg/injection, schedule: Q01DX001 (ip), vehicle: saline 102 % of control | [13] 117 % of control

CC1(C)CN=C(SC(=O)c2ccc([N+](=O)[O-])cc2)S1
inactive: endpoint: mean survival time, dose: 100.0 mg/kg/injection, schedule: Q04DX002 (ip), vehicle: gum acacia 100 % of control | endpoint: mean survival time, dose: 200.0 mg/kg/injection, schedule: Q04DX002 (ip), vehicle: gum acacia 93 % of control | endpoint: mean survival time, dose: 400.0 mg/kg/injection, schedule: Q04DX002 (ip), vehicle: gum acacia 93 % of control

C(Cc1ccccc1)=Nc1ccc(N=CCc2ccccc2)cc1
inactive: [13] 103 % of control | [14] 112 % of control | [15] 110 % of control

Cn1[nH]c(=O)c2ccccc2c1=O
inactive: endpoint: mean survival time, dose: 8.2 mg/kg/injection, schedule: Q04DX003 (ip), vehicle: Klucel (hydroxypropylcellulose) (HPC) 104 % of control | endpoint: mean survival time, dose: 12.5 mg/kg/injection, schedule: Q04DX003 (ip), vehicle: Klucel (hydroxypropylcellulose) (HPC) 109 % of control and 120 % of control | endpoint: mean survival time, dose: 18.0 mg/kg/injection, schedule: Q04DX003 (ip), vehicle: Klucel (hydroxypropylcellulose) (HPC) 108 % of control | endpoint: mean survival time, dose: 25.0 mg/kg/injection, schedule: Q04DX003 (ip), vehicle: Klucel (hydroxypropylcellulose) (HPC) 97 % of control | endpoint: mean survival time, dose: 50.0 mg/kg/injection, schedule: Q04DX003 (ip), vehicle: Klucel (hydroxypropylcellulose) (HPC) 110 % of control | [1] 106 % of control | [2] 106 % of control | [3] 103 % of control

CCCCNC(C)(C)C(SSSC(c1cccs1)C(C)(C)NCCCC)c1cccs1 (stereo not given)
inactive: [5] 97 % of control | [7] 107 % of control | [9] 100 % of control

CN(C)P(N)(N)=O
inactive: endpoint: mean survival time, dose: 100.0 mg/kg/injection, schedule: Q01DX009 (ip), vehicle: saline 101 % of control | [1] 97 % of control | endpoint: mean survival time, dose: 200.0 mg/kg/injection, schedule: Q01DX009 (ip), vehicle: saline 97 % of control | [2] 101 % of control | endpoint: mean survival time, dose: 400.0 mg/kg/injection, schedule: Q01DX009 (ip), vehicle: saline 103 % of control | [3] 100 % of control

CCOC(=O)CC1C(=O)Oc2ccc(O)cc21 (stereo not given) (tested in a mixture with another compound)
inactive: [4] 100 % of control | [16] 96 % of control | [6] 97 % of control | [17] 110 % of control | [8] 90 % of control | [18] 94 % of control

CC(C)[C@]12O[C@H]1[C@@H]1O[C@@]13[C@@]1(C)CCC4=C(COC4=O)[C@@H]1C[C@@H]1O[C@@]13C2=O
inactive: endpoint: mean survival time, dose: 79.0 micrograms/kg/injection, schedule: Q01DX009 (ip), vehicle: saline 92 % of control | endpoint: mean survival time, dose: 118.0 micrograms/kg/injection, schedule: Q01DX009 (ip), vehicle: saline 105 % of control | endpoint: mean survival time, dose: 178.0 micrograms/kg/injection, schedule: Q01DX009 (ip), vehicle: saline 99 % of control | endpoint: mean survival time, dose: 267.0 micrograms/kg/injection, schedule: Q01DX009 (ip), vehicle: saline 101 % of control | endpoint: mean survival time, dose: 400.0 micrograms/kg/injection, schedule: Q01DX009 (ip), vehicle: saline 108 % of control

C1CCC2=NCCCN2CC1
inactive: [19] 101 % of control | [20] 101 % of control | [21] 103 % of control | [22] 97 % of control

O=c1[nH]cc(Sc2ccccc2)c(=O)[nH]1
inactive: [16] 101 % of control | [17] 93 % of control | [18] 96 % of control

CNCCCN1c2ccccc2C(C)(C)c2ccccc21
inactive: [13] 97 % of control

c1ccc(N2CNN(c3ccccc3)CN2)cc1
inactive: endpoint: mean survival time, dose: 100.0 mg/kg/injection, schedule: Q01DX001 (ip), vehicle: carboxymethylcellulose (CMC) 86 % of control | endpoint: mean survival time, dose: 200.0 mg/kg/injection, schedule: Q01DX001 (ip), vehicle: carboxymethylcellulose (CMC) 90 % of control | endpoint: mean survival time, dose: 400.0 mg/kg/injection, schedule: Q01DX001 (ip), vehicle: carboxymethylcellulose (CMC) 95 % of control
